This is an account of results in US20230277612A1, “SAPONIN DERIVATIVES FOR USE IN MEDICINE” (priority 2020, published 2023).

The structures appear in SMILES notation. Read-outs that look alike come from different tables or passages of the source.

Data set [1] relates to EGFR expressing cells (A431). It is filed as cell-based.
Data set [2] relates to human red blood cells. The data set is described as follows: cells. Format: cell-based. The method, then:
Red blood cells (RBCs) were isolated from a buffy coat using a Ficoll gradient. The obtained RBC pellet (˜4-5 ml) was washed 2× with 50 ml DPBS (without Ca^2+/Mg^2+, PAN-Biotech GmbH). Cells were pelleted by centrifugation for 10 min, 800×g at RT. RBC were counted and resuspended at 500.000.000 c/ml in DPBS (without Ca^2+/Mg^2+), based on total cell count.
Saponin dilutions were prepared in DPBS (with Ca^2+/Mg^2+, PAN-Biotech GmbH), at 1.11× final strength. For positive lysis control a 0.02% Triton-X100 solution was prepared in DPBS^+/+. Of all compound solutions 135 μl was dispensed/well in a 96 well V-bottom plate. To this 15 μl RBC suspension was added and mixed shortly (10 sec-600 rpm). The plate was incubated 30 min at RT, with gentle agitation. Afterwards the plate was spun for 10 min at 800×g to pellet the RBC and 100-120 μl supernatant was transferred to a standard 96 wp (96 well-plate).
Saponin dilutions were prepared in DPBS (with Ca^2+/Mg^2+, PAN-Biotech GmbH), at 1.11× final strength. For positive lysis control a 0.02% Triton-X100 solution was prepared in DPBS+/+. Of all compound solutions 135 μl was dispensed/well in a 96 well V-bottom plate. To this 15 μl RBC suspension was added and mixed shortly (10 sec-600 rpm). The plate was incubated 30 min at RT, with gentle agitation. Afterwards the plate was spun for 10 min at 800×g to pellet the RBC and 100-120 μl supernatant was transferred to a standard 96 wp (96 well-plate).

Data set [3] relates to EGFR expressing cells (HeLa). It is filed as cell-based.
The subject of data set [4] is HeLa cells. The experiment in a line: cells. Format: cell-based. The method, then:
(§1) (FIGS. 66a and 66B). Next toxicity was determined, for this the modified saponins were titrated on HeLa and A431 cells. […] Next toxicity was determined, for this the modified saponins were titrated on HeLa and A431 cells.

The test system of data set [5] is A431 cells. The data set is described as follows: cells. Format: cell-based. The method, then:
as §1

Data set [6] can be described thus: Critical micellar concentration (CMC) by ANS fluorescence. The conditions noted are these: Table A7; determined in PBS. It is filed as physicochemical. As for the experimental part: The critical micellar concentration (CMC) of saponins derived from Saponaria officinalis (SO) (Table A7) and derived from Quillaja saponaria (QS) (Table A8, and Table A9) was determined by the method of DeVendittis et al. (A fluorimetric method for the estimation of the critical micelle concentration of surfactants, Analytical Biochemistry, Volume 115, Issue 2, August 1981, Pages 278-286) as follows:
(§2) The emission spectrum of 8-Anilinonaphthalene-1-sulfonic acid (ANS) in either purified water (MQ) or PBS (Dulbecco's PBS+/+) was determined at dry weight concentrations of saponins ranging from 1 to 1400 pM to cover the range below and above the CMC. Above the CMC, the fluorescence yield of ANS increases and the wavelength of maximum emission decreases due to portioning of the fluorescent dye into micelles. Fluorescence yields were recorded on a Fluoroskan Ascent FL (Thermo Scientific) at an excitation wavelength of 355 nm, and an emission wavelength of 460 nm. 6 μg at a concentration of 75.86 pM of ANS were used per sample and measurement.
The critical micellar concentration (CMC) of saponins was determined by the method of DeVendittis et al. (A fluorimetric method for the estimation of the critical micelle concentration of surfactants, Analytical Biochemistry, Volume 115, Issue 2, August 1981, Pages 278-286) as follows:
as §2, with “μM” for “pM”

Where [7] appears, read: A431, + 5 pM EGFdianthin, read-out: IC50 endosomal escape enhancing activity.
Where [8] appears, read: Table A5, read-out: IC50 nM (hemolysis).
Where [9] appears, read: Table A6, read-out: IC50 nM (hemolysis).
The mark [10] stands for this setting: read-out: IC50 hemolytic activity.
The mark [11] stands for this setting: HeLa, + 5 pM EGFdianthin, read-out: IC50 endosomal escape enhancing activity.
Where [12] appears, read: Table A5, saponin alone, read-out: IC50 nM (Toxicity).
Setting [13] is: Table A6, saponin alone, read-out: IC50 nM (Toxicity).
Where [14] appears, read: Table A6, A431 cells, saponin titrated + 5 pM EGFdianthin, read-out: IC50 nM (Activity).
[15] abbreviates: Table A5, HeLa cells, saponin titrated + 5 pM EGFdianthin, read-out: IC50 nM (Activity).
Where [16] appears, read: saponin alone, read-out: IC50 toxicity.

On to `CC1OC(OC2C(C)OC(OC(=O)[C@]34CCC(C)(C)CC3C3=CCC5[C@@]6(C)CC[C@H](OC7OC(C(=O)NC(C)(CO)CO)C(O)C(OC8OCC(O)C(O)C8O)C7OC7OC(CO)C(O)C(O)C7O)[C@@](C)(C=O)C6CC[C@@]5(C)[C@]3(C)C[C@H]4O)C(OC3OC(C)C(OC4OCC(O)C(OC5OC(CO)C(O)C(O)C5O)C4O)C(O)C3O)C2O)C(O)C(OC2OCC(O)C(O)C2O)C1O` (some centres unmarked) [SO1861-(Ac—OH)-(Glu-AMPD)], for which the IC50 in data set [1] (setting [7]) was 3000 nM; in data set [2] (setting [8]) it was 140000 nM; in data set [2] (setting [9]), 140000 nM; in data set [2] (setting [10]), 140000 nM; in data set [3] (setting [11]), 3000 nM; in data set [4] (setting [12]) it was > 100000 nM. Moreover, the IC50 in data set [5] (setting [13]) is > 100000 nM. The “CMC” value in data set [6] is 90 ± 10 µM.
Take `CC1OC(OC2C(C)OC(OC(=O)C34CCC(C)(C)CC3C3=CCC5C6(C)CCC(OC7OC(C(=O)O)C(O)C(OC8OCC(O)C(O)C8O)C7OC7OC(CO)C(O)C(O)C7O)C(C)(C=NNC(=O)CCCCCN7C(=O)C=CC7=O)C6CCC5(C)C3(C)CC4O)C(OC3OC(C)C(OC4OCC(O)C(OC5OC(CO)C(O)C(O)C5O)C4O)C(O)C3O)C2O)C(O)C(OC2OCC(O)C(O)C2O)C1O` (centres unmarked) [SO1861-(Ald-EMCH)-(Ac—OH)]: the IC50 in data set [1] (setting [7]) was 10000 nM; in data set [2] (setting [8]) it was > 1e+06 nM; in data set [2] (setting [9]) it was > 1e+06 nM; in data set [3] (setting [11]) it was 8000 nM; in data set [4] (setting [12]), > 100000 nM; in data set [5] (setting [13]), > 100000 nM. Further, in data set [6], the “CMC” value is >300 µM.
With `CC1OC(OC2C(C)OC(OC(=O)[C@]34CCC(C)(C)CC3C3=CCC5[C@@]6(C)CC[C@H](OC7OC(C(=O)NC(C)(CO)CO)C(O)C(OC8OCC(O)C(O)C8O)C7OC7OC(CO)C(O)C(O)C7O)[C@@](C)(CO)C6CC[C@@]5(C)[C@]3(C)C[C@H]4O)C(OC3OC(C)C(OC4OCC(O)C(OC5OC(CO)C(O)C(O)C5O)C4O)C(O)C3O)C2O)C(O)C(OC2OCC(O)C(O)C2O)C1O` (some centres unmarked) [SO1861-(Ald-OH)-(Ac—OH)-(Glu-AMPD)], the IC50 in data set [1] (setting [14]) was > 20000 nM; in data set [2] (setting [8]), > 1e+06 nM; in data set [2] (setting [9]), > 1e+06 nM; in data set [3] (setting [15]) it was > 20000 nM; in data set [4] (setting [12]), > 100000 nM; in data set [5] (setting [13]), > 100000 nM. The “CMC” value in data set [6] came to 120 ± 12 µM.
Consider `CC(=O)OC1C(C)OC(OC2C(C)OC(OC(=O)[C@]34CCC(C)(C)CC3C3=CCC5[C@@]6(C)CC[C@H](OC7OC(C(=O)NC(C)(CO)CO)C(O)C(OC8OCC(O)C(O)C8O)C7OC7OC(CO)C(O)C(O)C7O)[C@@](C)(CO)C6CC[C@@]5(C)[C@]3(C)C[C@H]4O)C(OC3OC(C)C(OC4OCC(O)C(OC5OC(CO)C(O)C(O)C5O)C4O)C(O)C3O)C2O)C(O)C1OC1OCC(O)C(O)C1O` (some centres unmarked) [SO1861-(Ald-OH)-(Glu-AMPD)], for which the IC50 in data set [1] (setting [7]) is 4000 nM; in data set [3] (setting [11]), 4000 nM; in data set [4] (setting [12]), > 100000 nM; in data set [5] (setting [13]) it was > 100000 nM. In addition, the “CMC” value in data set [6] amounted to 50 ± 5 µM.
As to `CC1OC(OC2C(C)OC(OC(=O)[C@]34CCC(C)(C)CC3C3=CCC5[C@@]6(C)CC[C@H](OC7OC(C(=O)NCCN8C(=O)C=CC8=O)C(O)C(OC8OCC(O)C(O)C8O)C7OC7OC(CO)C(O)C(O)C7O)[C@@](C)(C=O)C6CC[C@@]5(C)[C@]3(C)C[C@H]4O)C(OC3OC(C)C(OC4OCC(O)C(OC5OC(CO)C(O)C(O)C5O)C4O)C(O)C3O)C2O)C(O)C(OC2OCC(O)C(O)C2O)C1O` (some centres unmarked) [SO1861-(Glu-AEM)-(Ac—OH)], the IC50 is 4000 nM in data set [1] (setting [7]); 100000 nM in data set [2] (setting [8]); 100000 nM in data set [2] (setting [9]); 100000 nM in data set [2] (setting [10]); 8000 nM in data set [3] (setting [11]); > 100000 nM in data set [4] (setting [12]). Also, the IC50 in data set [5] (setting [13]) was > 100000 nM. For the same compound, the “CMC” value in data set [6] was 90 ± 10 µM.
In the case of `CC1OC(OC2C(C)OC(OC(=O)[C@]34CCC(C)(C)CC3C3=CCC5[C@@]6(C)CC[C@H](OC7OC(C(=O)NCCN8C(=O)C=CC8=O)C(O)C(OC8OCC(O)C(O)C8O)C7OC7OC(CO)C(O)C(O)C7O)[C@@](C)(CO)C6CC[C@@]5(C)[C@]3(C)C[C@H]4O)C(OC3OC(C)C(OC4OCC(O)C(OC5OC(CO)C(O)C(O)C5O)C4O)C(O)C3O)C2O)C(O)C(OC2OCC(O)C(O)C2O)C1O` (some centres unmarked) [SO1861-(Glu-AEM)-(Ald-OH)-(Ac—OH)], the IC50 in data set [1] (setting [14]) is > 20000 nM; in data set [2] (setting [8]) it was > 1e+06 nM; in data set [2] (setting [9]) it was > 1e+06 nM; in data set [3] (setting [15]), > 20000 nM; in data set [4] (setting [12]), > 100000 nM; in data set [5] (setting [13]) it was > 100000 nM. For the same compound, in data set [6], the “CMC” value was >150 µM.
Consider `CC(=O)OC1C(C)OC(OC2C(C)OC(OC(=O)[C@]34CCC(C)(C)CC3C3=CCC5[C@@]6(C)CC[C@H](OC7OC(C(=O)NCCN8C(=O)C=CC8=O)C(O)C(OC8OCC(O)C(O)C8O)C7OC7OC(CO)C(O)C(O)C7O)[C@@](C)(CO)C6CC[C@@]5(C)[C@]3(C)C[C@H]4O)C(OC3OC(C)C(OC4OCC(O)C(OC5OC(CO)C(O)C(O)C5O)C4O)C(O)C3O)C2O)C(O)C1OC1OCC(O)C(O)C1O` (some centres unmarked) [SO1861-(Glu-AEM)-(Ald-OH)], for which the IC50 in data set [1] (setting [7]) is 20000 nM; in data set [2] (setting [8]), > 1e+06 nM; in data set [2] (setting [9]), > 1e+06 nM; in data set [3] (setting [11]), 40000 nM; in data set [4] (setting [12]), > 100000 nM; in data set [5] (setting [13]), > 100000 nM. Also, in data set [6], the “CMC” value was found to be 90 ± 10 µM.
In the case of `CC1OC(OC2C(C)OC(OC(=O)[C@]34CCC(C)(C)CC3C3=CCC5[C@@]6(C)CC[C@H](OC7OC(C(=O)O)C(O)C(OC8OCC(O)C(O)C8O)C7OC7OC(CO)C(O)C(O)C7O)[C@@](C)(C=O)C6CC[C@@]5(C)[C@]3(C)C[C@H]4O)C(OC3OC(C)C(OC4OCC(O)C(OC5OC(CO)C(O)C(O)C5O)C4O)C(O)C3O)C2O)C(O)C(OC2OCC(O)C(O)C2O)C1O` (some centres unmarked) [SO1861-Ac—OH], the IC50 turned out to be 800 nM in data set [1] (setting [7]), 1000 nM in data set [3] (setting [11]), 10000 nM in data set [4] (setting [16]) and 2000 nM in data set [5] (setting [16]). Moreover, the “CMC” value in data set [6] came to 350 ± 35 µM.
As for `CC(=O)OC1C(C)OC(OC2C(C)OC(OC(=O)[C@]34CCC(C)(C)CC3C3=CCC5[C@@]6(C)CC[C@H](OC7OC(C(=O)O)C(O)C(OC8OCC(O)C(O)C8O)C7OC7OC(CO)C(O)C(O)C7O)[C@@](C)(CO)C6CC[C@@]5(C)[C@]3(C)C[C@H]4O)C(OC3OC(C)C(OC4OCC(O)C(OC5OC(CO)C(O)C(O)C5O)C4O)C(O)C3O)C2O)C(O)C1OC1OCC(O)C(O)C1O` (some centres unmarked) [SO1861-Ald-OH], the half-maximal inhibitory concentration (IC50) in data set [1] (setting [7]) was 600 nM; in data set [2] (setting [8]), 30000 nM; in data set [2] (setting [9]) it was 30000 nM; in data set [2] (setting [10]), 30000 nM; in data set [3] (setting [11]) it was 600 nM; in data set [4] (setting [12]) it was > 100000 nM. The IC50 in data set [5] (setting [16]) turned out to be 7000 nM. The “CMC” value in data set [6] was found to be 135 ± 14 µM.
